These results are taken from ChEMBL document CHEMBL5576160, “N-Substituted Pyrrole-Based Heterocycles as Broad-Spectrum Filoviral Entry Inhibitors” (J Med Chem, 2024).

Active and inactive are the calls of the source. No cut-off for these calls is given here.

Data set [1] is described as follows: Binding affinity to EBOV glycoprotein assessed as dissociation constant by SPR analysis. More on the design: species or system Ebolavirus. (In SPR one partner is held on a chip, and binding of the other changes the refractive index at the surface.)
A further data set concerns A549. As to the kind of experiment: Cytotoxicity against human A549 cells assessed as as reduction in cell viability incubated for 48 hrs by celltiter-glo assay. The class given is functional.
The test system of data set [2] is Ebolavirus. Put plainly: Antiviral activity against EBOV Mayinga infected in human HeLa cells assessed as inhibition of viral replication incubated for 40 hrs. The class given is functional, organism-based. To be noted: Orthoebolavirus.
Another data set deals with Bundibugyo virus. Put plainly: Antiviral activity against pseudotyped Bundibugyo virus infected in human A549 cells assessed as inhibition of viral growth. The class given is functional, organism-based.
Data set [3] deals with Sudan ebolavirus. As to the kind of experiment: Antiviral activity against pseudotyped Sudan ebolavirus Gulu infected in human A549 cells assessed as inhibition of viral growth. The class given is functional, organism-based.
For another data set, the system named is Tai Forest ebolavirus. As to the kind of experiment: Antiviral activity against pseudotyped Tai Forest ebolavirus infected in human A549 cells assessed as inhibition of viral growth. The class given is functional, organism-based.
A short description of data set [4]: Selectivity index, ratio of CC50 for cytotoxicity against human A549 cells to EC50 for antiviral activity against pseudotyped Marburgvirus Angola infected in human A549 cells assessed as inhibition of Pseudoviral entry. The class given is toxicity, cell-based. The following applies: read-out: Ratio CC50/EC50.
The test system of data set [5] is Marburgvirus. As to the kind of experiment: Antiviral activity against pseudotyped Marburgvirus Angola infected in human A549 cells assessed as inhibition of Pseudoviral entry incubated for 40 hrs. The class given is functional, organism-based. To be noted: Orthomarburgvirus, A549, 40 h.
The test system of data set [6] is Sudan ebolavirus. As to the kind of experiment: Antiviral activity against pseudotyped Sudan ebolavirus Gulu infected in human HeLa cells assessed as inhibition of viral replication. The class given is functional, organism-based.
Data set [7] has as its system Marburgvirus. Put plainly: Antiviral activity against Marburgvirus Angola infected in human Huh-7 cells assessed as inhibition of viral replication. The class given is functional, organism-based. To be noted: Orthomarburgvirus.
The test system of data set [8] is Ebolavirus. Put plainly: Antiviral activity against pseudotyped EBOV Mayinga infected in human A549 cells assessed as inhibition of Pseudoviral entry incubated for 40 hrs. The class given is functional, organism-based. The following applies: Orthoebolavirus, A549, 40 h.
A short description of data set [9]: Selectivity index, ratio of CC50 for cytotoxicity against human A549 cells to EC50 for antiviral activity against pseudotyped EBOV Mayinga infected in human A549 cells assessed as inhibition of Pseudoviral entry. The class given is toxicity, cell-based. The following applies: read-out: Ratio CC50/EC50.
Data set [10] deals with Ebolavirus. Put plainly: Antiviral activity against pseudotyped EBOV Mayinga infected in human A549 cells assessed as inhibition of viral growth at 3 uM measured after 3 hrs. The class given is functional, organism-based.
The next data set deals with CYP2C9 (Homo sapiens, UniProt P11712). Put plainly: Inhibition of CYP2C9 in human liver microsomes using tolbutamide as substrate at 10 uM preincubated with compound for 5 mins followed by NADPH addition and measured after 20 mins by LC-MS/MS analysis relative to control. The class given is ADME, Microsome. The following applies: probe tolbutamide, time 25 min. (In general: Liver microsomes are vesicles of endoplasmic reticulum, rich in cytochrome P450 enzymes.)

Data set [11] is described as follows: Stability in human plasma measured after 60 mins. To be noted: read-out: Stability. The class given is ADME, cell-free.
The target of a further data set is CYP2D6 (Homo sapiens, UniProt P10635). As to the kind of experiment: Inhibition of CYP2D6 in human liver microsomes using dextromethorphan as substrate at 10 uM preincubated with compound for 5 mins followed by NADPH addition and measured after 20 mins by LC-MS/MS analysis relative to control. The class given is ADME, Microsome. The following applies: probe dextromethorphan, time 25 min.

The test system of data set [12] is Marburgvirus. Put plainly: Antiviral activity against pseudotyped Marburgvirus Angola infected in human A549 cells assessed as inhibition of viral growth at 10 uM entry measured after 2 hrs. The class given is functional, organism-based.
A short description of data set [13]: Stability in mouse plasma measured after 60 mins. The following applies: read-out: Stability. The class given is ADME, cell-free.
Data set [14] can be described thus: Metabolic stability in human microsome measured at 60 min. The class given is ADME. To be noted: microsomes, read-out: Stability.
For data set [15], the system named is Ebolavirus. Put plainly: Antiviral activity against pseudotyped EBOV 1976 Zaire Mayinga assessed as inhibition of viral growth. The class given is functional, organism-based. The following applies: Orthoebolavirus.
Data set [16] relates to Ebolavirus. As to the kind of experiment: Antiviral activity against infectious EBOV 1976 Zaire Mayinga assessed as inhibition of viral growth. The class given is functional, organism-based. To be noted: Orthoebolavirus.
Data set [17] deals with Marburgvirus. As to the kind of experiment: Antiviral activity against pseudotyped Marburgvirus 2005 Lake Victoria Angola assessed as inhibition of viral growth. The class given is functional, organism-based. The following applies: Orthomarburgvirus.

Sequence of CYP2C9 (P11712 whole entry): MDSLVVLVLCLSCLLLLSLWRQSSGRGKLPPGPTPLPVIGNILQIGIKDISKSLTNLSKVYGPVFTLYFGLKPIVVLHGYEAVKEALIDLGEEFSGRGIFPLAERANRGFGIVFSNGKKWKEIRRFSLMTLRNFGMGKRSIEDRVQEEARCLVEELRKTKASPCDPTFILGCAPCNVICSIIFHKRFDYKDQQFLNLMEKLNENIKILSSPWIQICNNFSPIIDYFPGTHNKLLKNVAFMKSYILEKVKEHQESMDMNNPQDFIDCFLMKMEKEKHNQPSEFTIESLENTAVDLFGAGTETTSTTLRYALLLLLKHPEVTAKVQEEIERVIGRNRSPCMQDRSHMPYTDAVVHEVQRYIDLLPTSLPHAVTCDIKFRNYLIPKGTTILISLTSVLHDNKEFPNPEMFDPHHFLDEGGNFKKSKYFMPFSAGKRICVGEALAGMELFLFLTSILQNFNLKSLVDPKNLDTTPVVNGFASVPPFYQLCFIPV
Sequence of CYP2D6 (P10635 whole entry): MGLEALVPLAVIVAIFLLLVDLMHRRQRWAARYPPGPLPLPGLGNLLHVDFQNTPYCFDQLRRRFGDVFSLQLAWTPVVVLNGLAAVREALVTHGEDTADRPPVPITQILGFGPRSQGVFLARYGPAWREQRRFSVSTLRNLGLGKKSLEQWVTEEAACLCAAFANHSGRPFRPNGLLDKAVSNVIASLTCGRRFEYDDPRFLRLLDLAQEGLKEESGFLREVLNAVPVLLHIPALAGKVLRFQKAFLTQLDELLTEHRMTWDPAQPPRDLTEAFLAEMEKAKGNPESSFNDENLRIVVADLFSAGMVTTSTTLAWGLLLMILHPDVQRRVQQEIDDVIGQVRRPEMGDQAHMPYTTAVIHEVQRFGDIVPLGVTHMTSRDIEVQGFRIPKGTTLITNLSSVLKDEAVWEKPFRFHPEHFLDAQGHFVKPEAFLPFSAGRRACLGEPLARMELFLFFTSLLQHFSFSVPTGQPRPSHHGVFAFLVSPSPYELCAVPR

In the case of `OCCOc1ccc(/C(=C(/CCCl)c2ccccc2)c2ccccc2)cc1` [OSPEMIFENE], the Kd in data set [1] came out at 19.8 µM.
For the molecule `COc1ccc(Cn2c(C(=O)N3CCC(N(C)C)CC3)cc3ccccc32)cc1`, in the data set on A549, the cytotoxic concentration (CC50) is about 100 µM. Moreover, the EC50 with Ebolavirus [2] was 0.854 µM; with Bundibugyo virus, 1.39 µM; in the data set on Sudan ebolavirus [3], 1.23 µM; with Tai Forest ebolavirus it was 5.28 µM; in the data set with Marburgvirus [5] it was 7.84 µM; in the data set with Sudan ebolavirus [6], about 20 µM. The EC50 with Marburgvirus [7] was determined as 4.29 µM; in the data set with Ebolavirus [8] it was 0.543 µM. For the same molecule, in data set [4], the selectivity ratio came to 13.
Turning to `CN(C)CCNC(=O)c1cc2ccccc2n1Cc1ccc(Cl)cc1`, the EC50 with Bundibugyo virus turned out to be 2.66 µM; with Sudan ebolavirus [3] it was 0.834 µM; in the data set with Tai Forest ebolavirus, 3.74 µM; in the data set on Marburgvirus [5], 3.92 µM; with Ebolavirus [8] it was 3.49 µM. The selectivity ratio in [4] was found to be 7.5; in data set [9] it was 8.4.
`CN(C)C1CCN(C(=O)c2cc3ccccc3n2CC2CCCCC2)CC1`: the result in the data set with Ebolavirus [10] and with Marburgvirus [12] was inactive. Also, the half-maximal effective concentration (EC50) with Ebolavirus [2] stood at 0.391 µM; in the data set on Marburgvirus [5], 3.34 µM; in the data set with Sudan ebolavirus [6], 0.652 µM; with Marburgvirus [7] it was 1.32 µM; with Ebolavirus [8], 0.295 µM. Further, the inhibition at 20 min, 10 µM came out at 4.82% at CYP2C9 and 19.1% on CYP2D6. The remaining at 1 h in [11] and in data set [13] was 100% in each case. In addition, the selectivity ratio in [4] is 15; in [9], 170.
For the molecule `CN(C)C1CCN(C(=O)c2cc3sccc3n2Cc2ccc(Cl)cc2)CC1`, the EC50 with Bundibugyo virus was 1.9 µM; with Sudan ebolavirus [3], 1.01 µM; with Tai Forest ebolavirus, 4.14 µM; in the data set with Marburgvirus [5], 3.7 µM; in the data set with Ebolavirus [8], 0.899 µM. The selectivity ratio in data set [4] is 15; in data set [9], 61.
Consider `O=C(Nc1ccc(N2CCC(F)(F)CC2)cc1)c1cc2occc2n1Cc1ccc(Cl)cc1`, for which, in the data set on A549, the CC50 was over 100 µM. The 50% effective concentration (EC50) with Bundibugyo virus is 36.4 µM; in the data set on Sudan ebolavirus [3], 2.39 µM; with Tai Forest ebolavirus, over 100 µM; in the data set with Marburgvirus [5], over 100 µM; with Ebolavirus [8], 11.7 µM. Further, the values for the selectivity ratio in [4] and in [9] were 1 and 8.6, respectively.
In the case of `CN(C)C1CCN(C(=O)c2cn(Cc3ccccc3)c3ccccc23)CC1`, the figures for the remaining at 1 h in [14], in [11] and in data set [13] were 95.7%, 100% and 100%, respectively. Besides, in data set [4], the selectivity ratio stood at 6.9. Moreover, the half-maximal effective concentration (EC50) in the data set on Marburgvirus [5] was 14.6 µM; with Ebolavirus [8], 2.84 µM.
In the case of `CN(C)CCNC(=O)c1cc2occc2n1Cc1ccc(Cl)cc1`, the EC50 with Ebolavirus [15] is 1.26 µM; with Ebolavirus [16], 5.2 µM; with Ebolavirus [2], 2.43 µM; in the data set with Bundibugyo virus it was 1.95 µM; in the data set on Sudan ebolavirus [3] it was 1.04 µM; in the data set with Tai Forest ebolavirus it was 4.3 µM. The EC50 came out at 7.7 µM in the data set on Marburgvirus [17]; 6.47 µM with Marburgvirus [5]; 3.29 µM in the data set with Sudan ebolavirus [6]; 6.69 µM in the data set with Marburgvirus [7]; 1.26 µM with Ebolavirus [8]. Moreover, the remaining at 1 h in data set [11] and in [13] was 100% each time. In addition, the selectivity ratio came out at 9.8 in [4] and 50 in [9].
Take `CN(C)C1CCN(C(=O)c2cc3ccccc3n2Cc2ccccc2)CC1`: the half-maximal cytotoxic concentration (CC50) in the data set with A549 was about 100 µM. Further, the remaining at 1 h in [11] and in [13] was 100% in each case. In addition, the results for the selectivity ratio in [4] and in data set [9] were 9.6 and about 180, respectively. The figures for the EC50 with Marburgvirus [5] and with Ebolavirus [8] were 9.53 µM and 0.55 µM, respectively.
With `CN(C)C1CCN(C(=O)c2cc3occc3n2Cc2ccc(Cl)cc2)CC1`, the half-maximal effective concentration (EC50) in the data set with Ebolavirus [2] amounted to 6.21 µM; in the data set with Bundibugyo virus it was 1.99 µM; with Sudan ebolavirus [3] it was 0.641 µM; in the data set with Tai Forest ebolavirus it was 5.6 µM; in the data set on Marburgvirus [5] it was 11.5 µM; in the data set with Sudan ebolavirus [6], 0.5 µM. Also, the EC50 in the data set on Marburgvirus [7] worked out at 7.96 µM; with Ebolavirus [8], 1.05 µM. In addition, the remaining at 1 h in data set [11] and in [13] was 100% in each case. In addition, the selectivity ratio in data set [4] was 5.3; in data set [9], 58.
As for `CN(C)C1CCN(C(=O)c2cc3ccccc3n2Cc2ccc(F)cc2)CC1`, the EC50 with Ebolavirus [2] is over 20 µM; in the data set with Bundibugyo virus it was 0.353 µM; in the data set with Sudan ebolavirus [3], 0.554 µM; in the data set with Tai Forest ebolavirus, 2.7 µM; in the data set on Marburgvirus [5], 4.99 µM; in the data set on Sudan ebolavirus [6] it was 1.01 µM. Also, the concentration for a half-maximal effect (EC50) was over 20 µM in the data set with Marburgvirus [7] and 0.453 µM with Ebolavirus [8]. In addition, the figures for the selectivity ratio in data set [4] and in [9] were 13 and 100, respectively.
For `CN(C)CCOc1ccc(/C(=C(/CCCl)c2ccccc2)c2ccccc2)cc1` [TOREMIFENE], the result in the data set with Ebolavirus [10] and in the data set with Marburgvirus [12] was inactive. For the same molecule, the Kd in data set [1] came to 18.9 µM.

The Kd is the equilibrium constant for the complex coming apart. As a reminder, the CC50 is the concentration that lowers cell viability or growth by half. A word on the EC50: it is the concentration needed to bring the measured effect to its halfway point. As a reminder, the inhibition is how much of the control response was suppressed.
